pIC50: −log10 of the molar value.
What was measured:
[1] = target: T1, recombinant human Cox-1 (r-hu Cox1) (Homo sapiens, UniProt P23219); assay: Recombinant human PGHS-1 enzyme assay (RHUCX1); assay type: biochemical
T1 construct: made in house; host or cells: baculovirus/Sf9 insect cells (microsomes)
Experimental: (§1) To compare the mean responses of the treatment groups, analysis of variance was applied. Percent inhibition values were determined by comparing the individual treatment mean values to the mean of the control group. Linear regression was used to estimate IC50's/ED50's in appropriate assays.
(§2) EIA reagents for prostaglandin determination were purchased from Perseptive Diagnostics, (Cambridge, Mass.). Prostaglandin E2 (PGE2) levels in lavage fluids were determined after the samples were dried under nitrogen and reconstituted with assay buffer. PGE2 levels in enzyme assays or cell culture media were measured against standards prepared in the same milieu. The immunoassays were conducted as recommended by the manufacturer. The EIA was conducted in 96 well microtiter plates (Nunc Roskilde, Denmark) and optical density was measured using a microplate reader (Vmax, Molecular Devices Corp., Menlo Park, Calif.).
(§3) Inhibition of prostaglandin biosynthesis in vitro was evaluated using recombinant human Cox-1 (r-hu Cox1) and Cox-2 (r-hu Cox-2) enzyme assays. […] The reaction was allowed to run for 2.5 minutes at room temperature prior to quenching with HCl and neutralization with NaOH. PGE2 production in the presence and absence of the drug was determined by EIA analysis. The EIA was conducted in 96 well microtiter plates (Nunc Roskilde, Denmark) and optical density was measured using a microplate reader (Vmax, Molecular Devices Corp., Menlo Park, Calif.). EIA reagents for prostaglandin determination were purchased from Perseptive Diagnostics (Cambridge, Mass.). PGE2 levels were measured against standards prepared in the same milieu. The immunoassays were conducted as recommended by the manufacturer.

[2] = target: T2, recombinant human Cox-2 (r-hu Cox-2) (Homo sapiens, UniProt P35354); assay: Recombinant human PGHS-2 enzyme assay (RHUCX2); assay type: biochemical; settings: for pIC50: read-out: RHUCX2 IC50 (parenthetical value)
T2 construct: made in house; host or cells: baculovirus/Sf9 insect cells (microsomes)
T2 sequence (P35354 18-604): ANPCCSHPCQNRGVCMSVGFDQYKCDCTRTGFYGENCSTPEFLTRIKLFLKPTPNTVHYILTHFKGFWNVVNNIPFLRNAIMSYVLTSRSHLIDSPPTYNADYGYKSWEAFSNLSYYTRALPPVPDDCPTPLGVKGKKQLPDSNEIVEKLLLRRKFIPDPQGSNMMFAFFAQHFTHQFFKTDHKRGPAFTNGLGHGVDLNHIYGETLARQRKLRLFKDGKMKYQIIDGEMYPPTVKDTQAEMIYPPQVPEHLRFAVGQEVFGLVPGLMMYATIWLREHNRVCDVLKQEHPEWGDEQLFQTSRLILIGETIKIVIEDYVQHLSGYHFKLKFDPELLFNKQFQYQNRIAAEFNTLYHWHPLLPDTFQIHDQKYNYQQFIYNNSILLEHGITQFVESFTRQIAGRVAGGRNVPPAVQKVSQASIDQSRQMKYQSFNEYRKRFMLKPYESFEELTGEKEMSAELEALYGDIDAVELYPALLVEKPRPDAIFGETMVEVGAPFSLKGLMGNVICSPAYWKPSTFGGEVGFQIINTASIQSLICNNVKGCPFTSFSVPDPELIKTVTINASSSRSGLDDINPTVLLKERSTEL
Experimental: as §1, §2, §3

T1 sequence (P23219 24-599): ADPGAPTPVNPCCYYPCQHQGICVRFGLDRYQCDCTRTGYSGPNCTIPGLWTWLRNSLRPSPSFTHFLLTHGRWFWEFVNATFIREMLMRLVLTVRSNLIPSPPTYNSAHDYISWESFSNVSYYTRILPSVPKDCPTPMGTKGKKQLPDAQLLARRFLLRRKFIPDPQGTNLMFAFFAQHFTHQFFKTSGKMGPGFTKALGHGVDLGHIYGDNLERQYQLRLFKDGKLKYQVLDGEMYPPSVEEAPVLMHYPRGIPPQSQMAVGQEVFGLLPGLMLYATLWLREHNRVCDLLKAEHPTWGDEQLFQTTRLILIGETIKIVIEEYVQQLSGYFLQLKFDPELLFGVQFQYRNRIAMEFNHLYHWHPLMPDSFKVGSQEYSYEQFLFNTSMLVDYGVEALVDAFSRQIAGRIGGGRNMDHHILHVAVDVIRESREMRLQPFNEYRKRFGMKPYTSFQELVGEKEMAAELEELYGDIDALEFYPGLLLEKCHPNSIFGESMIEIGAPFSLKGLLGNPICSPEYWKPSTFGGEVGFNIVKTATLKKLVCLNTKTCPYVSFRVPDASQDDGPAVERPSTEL

| RHUCX1 % Inh. at Dose (μM) ([1]; 100 μM) | RHUCX2 % Inh. at Dose (μM) ([2]; 0.1 μM) | Compound | melting point [°C] | other results |
| --- | --- | --- | --- | --- |
| 15 @ 100% | – | 2-(2,2,2-Trifluoroethyl)-4-(4-methoxyphenoxy)-5-[4-(methylsulfonyl)phenyl]-3(2H)-pyridazinone [Example 262] | – | pIC50 [2]: 6.36 |
| 31 @ 100% | 72 @ 0.1% | 2-(2-Hexyl)-4-(4-fluorophenyl)-5-[4-(methylsulfonyl)phenyl]-3(2H)-pyridazinone [Example 118] | – | RHUCX2 % Inh. at Dose (μM) ([2]; 0.01 μM): 17 @ 0.01% |
| 0 @ 100% | 0 @ 0.1% | 2-(3-Chlorophenyl)-4-(cyclopentylmethyl)-5-[4-(methylsulfonyl)phenyl]-3(2H)-pyridazinone [Example 364] | – | RHUCX2 % Inh. at Dose (μM) ([2]; 1 μM): 86 @ 1% |
| 19 @ 100% | – | CS(=O)(=O)c1ccc(-c2cnn(CC#Cc3ccccc3)c(=O)c2-c2ccc(F)cc2)cc1 [Example 21, 2-(Phenylpropargyl)-4-(4-fluorophenyl)-5-[4-(methylsulfonyl)phenyl]-3(2H)-pyridazinone] | – | pIC50 [2]: 6.04 |
| 0 @ 100% | 68 @ 0.1% | C=C(C)Cn1ncc(-c2ccc(S(C)(=O)=O)cc2)c(-c2ccc(F)cc2)c1=O [Example 23, 2-(Methyl-2-propenyl)-4-(4-fluorophenyl)-5-[4-(methylsulfonyl)phenyl]-3(2H)-pyridazinone] | – | RHUCX2 % Inh. at Dose (μM) ([2]; 0.01 μM): 27 @ 0.01% |
| 20 @ 100% | 83 @ 0.1% | CS(=O)(=O)c1ccc(-c2cnn(Cc3ccccc3)c(=S)c2-c2ccc(F)cc2)cc1 [Example 32, 2-Benzyl-4-(4-fluorophenyl)-5-[4-(methylsulfonyl)phenyl]-3(2H)-pridazinethione] | – | RHUCX2 % Inh. at Dose (μM) ([2]; 1 μM): 96 @ 1% |
| 13 @ 100% | 17 @ 0.1% | CS(=O)(=O)c1ccc(-c2cnn(CC(=O)c3ccc(F)cc3F)c(=O)c2-c2ccc(F)cc2)cc1 [Example 41, 2-(2,4-Difluorophenacyl)-4-(4-fluorophenyl)-5-[4-(methylsulfonyl)phenyl]-3(2H)-pyrdazinone] | – | RHUCX2 % Inh. at Dose (μM) ([2]; 1 μM): 49 @ 1% |
| 0 @ 100% | 92 @ 0.1% | CS(=O)(=O)c1ccc(-c2cnn(Cc3ccc(Cl)s3)c(=O)c2-c2ccc(F)cc2)cc1 [Example 42] | – | RHUCX2 % Inh. at Dose (μM) ([2]; 1 μM): 99 @ 1% |
| 0 @ 100% | 2 @ 0.1% | C#CCn1ncc(-c2ccc(S(C)(=O)=O)cc2)c(-c2ccc(F)cc2)c1=O [Example 48, 2-(Propargyl)-4-(4-fluorophenyl)-5-[4-(methylsulfonyl)phenyl]-3(2H)-prridazinone] | – | RHUCX2 % Inh. at Dose (μM) ([2]; 1 μM): 73 @ 1% |
| 7 @ 100% | – | CS(=O)(=O)c1ccc(-c2cnn(Cc3ccsc3)c(=O)c2-c2ccc(F)cc2)cc1 [Example 60] | – | RHUCX2 % Inh. at Dose (μM) ([2]; 1,000 μM): 100 @ 1,000% |
| – | 36 @ 0.1% | Cc1nn(CC(F)(F)F)c(=O)c(-c2ccc(F)cc2)c1-c1ccc(S(C)(=O)=O)cc1 [Example 64] | – | RHUCX1 % Inh. at Dose (μM) ([1]; 1 μM): 68 @ 1%; RHUCX2 % Inh. at Dose (μM) ([2]; 1 μM): 34 @ 1% |
| – | – | CS(=O)(=O)c1ccc(-c2cnn(CC(F)(F)F)c(=O)c2OC2CCCCC2)cc1 [Example 84] | – | RHUCX1 % Inh. at Dose (μM) ([1]; 1 μM): 9 @ 1%; RHUCX1 % Inh. at Dose (μM) ([1]; 10 μM): 49 @ 10%; RHUCX2 % Inh. at Dose (μM) ([2]; 0.3 μM): 87 @ 0.3% |
| 0 @ 100% | 35 @ 0.1% | CS(=O)(=O)c1ccc(-c2cnn(CC(F)=C(F)F)c(=O)c2-c2ccc(F)cc2)cc1 [Example 88] | – | RHUCX2 % Inh. at Dose (μM) ([2]; 1,000 μM): 97 @ 1,000% |
| – | – | CC(C)(O)CCOc1c(-c2ccc(S(N)(=O)=O)cc2)cnn(-c2ccc(F)c(Cl)c2)c1=O [Example 474, 2-(3-Chloro-4-fluorophenyl)-4-(3-hydroxy-3-methyl-1-butoxy)-5-[4-(aminosulfonyl)phenyl]-3(2H)-pyridazinone] | 59 to 62 | – |
| – | – | CC(C)(O)COc1c(-c2ccc(S(C)(=O)=O)cc2)cnn(-c2ccc(F)c(Cl)c2)c1=O [Example 479, 2-(3-Chloro-4-fluorophenyl)-4-(2-hydroxy-2-methyl-1-propoxy)-5-[4-(methylsulfonyl)phenyl]-3(2H)-pyridazinone] | 122 to 124 | – |
| – | – | CC(C)(O)COc1c(-c2ccc(S(N)(=O)=O)cc2)cnn(-c2ccc(F)c(Cl)c2)c1=O [Example 480, 2-(3-Chloro-4-fluorophenyl)-4-(2-hydroxy-2-methyl-1-propoxy)-5-[4-(aminosulfonyl)phenyl]-3(2H)-pyridazinone] | 176 to 178 | – |
| – | – | CC(C)(CO)COc1c(-c2ccc(S(C)(=O)=O)cc2)cnn(-c2ccc(F)c(F)c2)c1=O [Example 510, 2-(3,4-Difluorophenyl)-4-(3-hydroxy-2,2-dimethyl-1-propoxy)-5-[4-(methylsulfonyl)phenyl]-3(2H)-pyridazinone] | 161 to 162 | – |
| – | – | CC(C)(O)CCOc1c(-c2ccc(S(C)(=O)=O)cc2)cnn(-c2ccc(Cl)c(Cl)c2)c1=O [Example 532, 2-(3,4-Dichlorophenyl)-4-(3-hydroxy-3-methyl-1-butoxy)-5-[4-(methylsulfonyl)phenyl]-3(2H)-pyridazinone] | 118 to 120 | – |
| – | – | CC(C)COc1c(-c2ccc(S(C)(=O)=O)cc2)cnn(-c2ccc(F)c(Cl)c2)c1=O [Example 537, 2-(3-Chloro-4-fluorophenyl)-4-(2-methyl-1-propoxy)-5-[4-(methylsulfonyl)phenyl]-3(2H)-pyridazinone] | 116 to 120 | – |
| – | – | CC(C)CCOc1c(-c2ccc(S(C)(=O)=O)cc2)cnn(-c2ccc(F)c(Cl)c2)c1=O [Example 538, 2-(3-Chloro-4-fluorophenyl)-4-(3-methyl-1-butoxy)-5-[4-(methylsulfonyl)phenyl]-3(2H)-pyridazinone] | 148 to 152 | – |
| – | – | CC(C)COc1c(-c2ccc(S(C)(=O)=O)cc2)cnn(-c2ccc(Cl)c(Cl)c2)c1=O [Example 539, 2-(3,4-Dichlorophenyl)-4-(2-methyl-1-propoxy)-5-[4-(methylsulfonyl)phenyl]-3(2H)-pyridazinone] | 127 to 129 | – |
| – | – | CC(C)CCOc1c(-c2ccc(S(C)(=O)=O)cc2)cnn(-c2ccc(Cl)c(Cl)c2)c1=O [Example 540, 2-(3,4-Dichlorophenyl)-4-(3-methyl-1-butoxy)-5-[4-(methylsulfonyl)phenyl]-3(2H)-pyridazinone] | 130 to 134 | – |
| – | – | CS(=O)(=O)c1ccc(-c2cnn(-c3ccc(F)c(F)c3)c(=O)c2OCCCCO)cc1 [Example 541, 2-(3,4-Difluorophenyl)-4-(4-hydroxy-1-butoxy)-5-[4-(methylsulfonyl)phenyl]-3(2H)-pyridazinone] | 110 to 113 | – |
| – | – | CC(C)COc1c(-c2ccc(S(C)(=O)=O)cc2)cnn(-c2cccc(C(F)(F)F)c2)c1=O [Example 542, 2-[3-(Trifluoromethyl)phenyl]-4-(2-methyl-1-propoxy)-5-[4-(methylsulfonyl)phenyl]-3(2H)-pyridazinone] | 125 to 127 | – |
| – | – | CC(C)CCOc1c(-c2ccc(S(C)(=O)=O)cc2)cnn(-c2cccc(C(F)(F)F)c2)c1=O [Example 543, 2-[3-(Trifluoromethyl)phenyl]-4-(3-methyl-1-butoxy)-5-[4-(methylsulfonyl)phenyl]-3(2H)-pyridazinone] | 82 to 85 | – |
| – | – | CC(C)(O)CCOc1c(-c2ccc(S(C)(=O)=O)cc2)cnn(-c2cccc(C(F)(F)F)c2)c1=O [Example 544, 2-[3-(Trifluoromethyl)phenyl]-4-(3-hydroxy-3-methyl-1-butoxy)-5-[4-(methylsulfonyl)phenyl]-3(2H)-pyridazinone] | 90 to 93 | – |
| – | – | C[C@H](O)CCOc1c(-c2ccc(S(C)(=O)=O)cc2)cnn(-c2ccc(F)c(F)c2)c1=O [Example 546, (S)-2-(3,4-Difluorophenyl)-4-(3-hydroxy-1-butoxy)-5-[4-(methylsulfonyl)phenyl]-3(2H)-pyridazinone] | 128 to 130 | – |

Source: US20020028938A1, “Prostaglandin endoperoxide H synthase biosynthesis inhibitors” (priority 1997, published 2002)
